Data from patent US20050054006A1, “Combinatorial fluorescent library based on the styryl scaffold” (New York University, priority 2003, published 2005).

What was measured:
[1] = tested on: dsDNA (double stranded DNA); assay: Fluorescence change of the dye upon addition of DNA (fluorometric titration); format: binding
Experimental: (§1) With these compounds(FIG. 2), we observed the fluorescence intensity change upon addition of DNA. […] With a series of concentrations of dsDNA (double stranded DNA) added to compound 1, a linear increase in the fluorescence intensities was observed (FIG. 3). At the highest concentration of DNA tested (50 μg/mL), the increase in fluorescence emission reached up to 13.3 times higher than that of the free compound (FIG. 4). A blue shift of 17 nm in the emission wavelength upon DNA addition was observed, without a significant excitation wavelength shift. The structure of compound 1 includes a 2,4,5-trimethoxy group from the benzaldehyde moiety and a unique adamantyl pyridinium functionality.
Different trimethoxy isomers, 2 (3,4,5-trimethoxy) and 3 (2,3,4-trimethoxy) were synthesized to compare the positional effects of the methoxy groups in compound 1 (FIG. 2). While the responses of compound 2 and 3 to DNA treatment were simliar to that of compound 1, the fluorescence emission increase was much smaller in compound 2 (4.3 fold) and compound 3 (1.5 fold).

[2] = Spectrophotometric properties of the free styryl dyes; format: physicochemical
Experimental: as §1

[3] = tested on: UACC-62 human melanoma cells; assay: Organelle localization in live cells by fluorescence microscopy; conditions: live UACC-62 cells; for LOCALIZATION: fluorescence microscope λex=405, 490, 570 nm, λem>510 nm
[4] = Fluorescence excitation/emission of the styryl dye library compounds; format: physicochemical; conditions: EX/EM peak no. 1

## COc1cc(OC)c(OC)cc1C=Cc1cc[n+](C23CC4CC(CC(C4)C2)C3)cc1.[Br-] [Compound 1]
[1]
  blue shift in the emission wavelength upon DNA addition: 17 nm
  fluorescence intensity change upon addition of DNA: strong fluorescence increase
[1]; highest DNA concentration tested, 50 μg/mL
  increase in fluorescence emission versus free compound: 13.3 times
[1]; quantum yield, with DNA
  φF DNA: 0.0032
[1]; ratio of quantum yields with DNA and free
  φF DNA/φF free: 13.3
[1]; with DNA
  λem DNA (nm): 566 nm
[2]
  emission wavelength: 583 nm
  excitation wavelength: 413 nm
[2]; free dye
  λem free (nm): 583 nm
  λmax (nm): 413 nm
[2]; in PBS, without self-quenching or wavelength shifts
  linear fluorescence response range: 0.05 to 100 µM
[2]; quantum yield, free dye
  φF free: 0.00024
[3]; compounds 1, 2, 3 at the same concentration
  nuclear localization / staining in live cells: more selective staining of the nucleus of live cells

## Cc1cccc(/C=C/c2ccc(N(C)C)cc2)[n+]1C.[I-] [Compound L19]
[4]
  EM(nm): 580 nm
  EX(nm): 450 nm
[3]
  LOCALIZATION: MITO

## COc1ccc2ccccc2c1C=Cc1cccc(C)[n+]1C.[I-] [Compound L23]
[4]
  EM(nm): 570 nm
  EX(nm): 420 nm
[3]
  LOCALIZATION: CYTO

## Cc1cccc(C=Cc2cccc3ccccc23)[n+]1C.[I-] [Compound L32]
[4]
  EM(nm): 520 nm
  EX(nm): 400(broad) nm
[3]
  LOCALIZATION: MITO

## Cc1cccc(C=Cc2ccc3ccccc3c2)[n+]1C.[I-] [Compound L33]
[4]
  EM(nm): 500 nm
  EX(nm): 360-470 nm
[3]
  LOCALIZATION: MITO

## Cc1cccc(C=CC=Cc2ccccc2)[n+]1C.[I-] [Compound L35]
[4]
  EM(nm): 510 nm
  EX(nm): 420 nm
[3]
  LOCALIZATION: MITO
